The values below are quoted from earlier work in patent publication EP1131101B1, “KHELLIN PREPARATION AND THE USE THEREOF FOR TOPICAL THERAPY” (priority 1998, dated 2000).

Molecules are shown by their SMILES.

In data set [1] the test system is Bakterien.
The conditions of data set [2]: animal experiments; UVA phototherapy with Khellin compared with photochemotherapy with 8-MOP.
The test system of data set [3] is Grünalgen.
For data set [4], the system named is Plaque-Psoriasis. The following applies: oral 100 mg Khellin then sun exposure.

As for `COc1c2occc2c(OC)c2c(=O)cc(C)oc12` [Khellin, 4,9-Dimethoxy-7-methyl-5H-furo[3,2-g][1] benzopyran-5-on], the Photomutagenität entry in data set [1] is recorded as “nur eine geringe Photomutagenität”. For the same compound, the “karzinogenes Risiko” value in data set [2] was “deutlich geringeres karzinogenes Risiko”. The Mutagenität entry in data set [3] is “keine signifikante Mutagenität”. Besides, the “auf die Behandlung ansprachen” value in data set [4] (10 patients with plaque psoriasis) was 80%. In addition, in data set [4] (of the responding patients), the “für drei Jahre symptomfrei” value is 6 von 8.
